Results on two compounds are retold here after patent US12227500B2, “Substituted pyrrolo[2,3-b]pyridines for suppressing toxic endoplasmic reticulum stress” (THE TRUSTEES OF COLUMBIA UNIVERSITY IN THE CITY OF NEW YORK, priority 2018, dated 2025).

Holding throughout (assay): Radiolabeled ATP kinase assay, panel of 371 kinases (Table S6)
What all share (type): biochemical

Assay [1] deals with T1, panel of 371 human kinases (Homo sapiens, UniProt O15264).
T1 construct: purchased Reaction Biology Corp
The settings on record: P38d/MAPK13; 0.1 μM; 10 μM ATP; read-out: % Enzyme Activity (relative to DMSO controls). The text has this: (§1) ; FIG. 38C). […]. Further targeted analyses, such as genetic knock-down or knock-out, may be warranted to parse the role of these additional kinases in our model of neurodegeneration.

Assay [2] has as its target T2, panel of 371 human kinases (Homo sapiens, UniProt Q05513).
T2 construct: purchased Reaction Biology Corp
The settings on record: PKCzeta; 0.1 μM; 10 μM ATP; read-out: % Enzyme Activity (relative to DMSO controls).
Source text: as §1

The target of assay [3] is T3, panel of 371 human kinases (Homo sapiens, UniProt Q08881).
T3 construct: purchased Reaction Biology Corp
The settings on record: ITK; 0.1 μM; 10 μM ATP; read-out: % Enzyme Activity (relative to DMSO controls).
Source text: as §1

Assay [4] deals with T4, panel of 371 human kinases (Homo sapiens, UniProt Q8TDX7).
T4 construct: purchased Reaction Biology Corp
The settings on record: NEK7; 0.1 μM; 10 μM ATP; read-out: % Enzyme Activity (relative to DMSO controls).
Source text: as §1

The target of assay [5] is T5, panel of 371 human kinases (Homo sapiens, UniProt P51451).
T5 construct: purchased Reaction Biology Corp
The following applies: BLK; 0.1 μM; 10 μM ATP; read-out: % Enzyme Activity (relative to DMSO controls).
Source text: as §1

The target of assay [6] is T6, panel of 371 human kinases (Homo sapiens, UniProt Q15208).
T6 construct: purchased Reaction Biology Corp
The following applies: STK38/NDR1; 0.1 μM; 10 μM ATP; read-out: % Enzyme Activity (relative to DMSO controls).
Source text: as §1

Assay [7] concerns the target T7, panel of 371 human kinases (Homo sapiens, UniProt Q16832).
T7 construct: purchased Reaction Biology Corp
The settings on record: DDR2; 0.1 μM; 10 μM ATP; read-out: % Enzyme Activity (relative to DMSO controls).
Source text: as §1

Assay [8] deals with T8, panel of 371 human kinases (Homo sapiens, UniProt O14578).
T8 construct: purchased Reaction Biology Corp
The settings on record: STK21/CIT; 0.1 μM; 10 μM ATP; read-out: % Enzyme Activity (relative to DMSO controls).
Source text: as §1

Assay [9] concerns the target T9, panel of 371 human kinases (Homo sapiens, UniProt Q9H2X6).
T9 construct: purchased Reaction Biology Corp
The following applies: HIPK2; 0.1 μM; 10 μM ATP; read-out: % Enzyme Activity (relative to DMSO controls).
Source text: as §1

Assay [10] has as its target T10, panel of 371 human kinases (Homo sapiens, UniProt P04049).
T10 construct: purchased Reaction Biology Corp
The following applies: RAF1; 0.1 μM; 10 μM ATP; read-out: % Enzyme Activity (relative to DMSO controls).
Source text: as §1

For assay [11], the target named is T11, panel of 371 human kinases (Homo sapiens, UniProt Q13557).
T11 construct: purchased Reaction Biology Corp
The settings on record: CAMK2d; 0.1 μM; 10 μM ATP; read-out: % Enzyme Activity (relative to DMSO controls).
Source text: as §1

Assay [12] deals with T12, panel of 371 human kinases (Homo sapiens, UniProt O14757).
T12 construct: purchased Reaction Biology Corp
The following applies: CHK1; 0.1 μM; 10 μM ATP; read-out: % Enzyme Activity (relative to DMSO controls).
Source text: as §1

The target of assay [13] is T13, panel of 371 human kinases (Homo sapiens, UniProt Q9UKE5).
T13 construct: purchased Reaction Biology Corp
The following applies: TNIK; 0.1 μM; 10 μM ATP; read-out: % Enzyme Activity (relative to DMSO controls).
Source text: as §1

In assay [14] the target is T14, panel of 371 human kinases (Homo sapiens, UniProt P51813).
T14 construct: purchased Reaction Biology Corp
The following applies: BMX/ETK; 0.1 μM; 10 μM ATP; read-out: % Enzyme Activity (relative to DMSO controls).
Source text: as §1

Assay [15] deals with T15, panel of 371 human kinases (Homo sapiens, UniProt Q9UPZ9).
T15 construct: purchased Reaction Biology Corp
The following applies: LCK2/ICK; 0.1 μM; 10 μM ATP; read-out: % Enzyme Activity (relative to DMSO controls).
Source text: as §1

For assay [16], the target named is T16, panel of 371 human kinases (Homo sapiens, UniProt Q16512).
T16 construct: purchased Reaction Biology Corp
The settings on record: PKN1/PRK1; 0.1 μM; 10 μM ATP; read-out: % Enzyme Activity (relative to DMSO controls).
Source text: as §1

Assay [17] concerns the target T17, panel of 371 human kinases (Homo sapiens, UniProt Q92918).
T17 construct: purchased Reaction Biology Corp
The settings on record: HPK1/MAP4K1; 0.1 μM; 10 μM ATP; read-out: % Enzyme Activity (relative to DMSO controls).
Source text: as §1

Assay [18] has as its target T18, panel of 371 human kinases (Homo sapiens, UniProt P42679).
T18 construct: purchased Reaction Biology Corp
The following applies: CTK/MATK; 0.1 μM; 10 μM ATP; read-out: % Enzyme Activity (relative to DMSO controls).
Source text: as §1

Assay [19] deals with T19, panel of 371 human kinases (Homo sapiens, UniProt Q13164).
T19 construct: purchased Reaction Biology Corp
The following applies: ERK5/MAPK7; 0.1 μM; 10 μM ATP; read-out: % Enzyme Activity (relative to DMSO controls).
Source text: as §1

Assay [20] addresses T20, panel of 371 human kinases (Homo sapiens, UniProt Q15759).
T20 construct: purchased Reaction Biology Corp
The following applies: P38b/MAPK11; 0.1 μM; 10 μM ATP; read-out: % Enzyme Activity (relative to DMSO controls).
Source text: as §1

Assay [21] addresses T21, panel of 371 human kinases (Homo sapiens, UniProt Q16288).
T21 construct: purchased Reaction Biology Corp
The following applies: TRKC; 0.1 μM; 10 μM ATP; read-out: % Enzyme Activity (relative to DMSO controls).
Source text: as §1

Assay [22] addresses T22, panel of 371 human kinases (Homo sapiens, UniProt O95747).
T22 construct: purchased Reaction Biology Corp
The following applies: OSR1/OXSR1; 0.1 μM; 10 μM ATP; read-out: % Enzyme Activity (relative to DMSO controls).
Source text: as §1

Assay [23] concerns the target T23, panel of 371 human kinases (Homo sapiens, UniProt Q9NWZ3).
T23 construct: purchased Reaction Biology Corp
The settings on record: IRAK4; 0.1 μM; 10 μM ATP; read-out: % Enzyme Activity (relative to DMSO controls).
Source text: as §1

For assay [24], the target named is T24, panel of 371 human kinases (Homo sapiens, UniProt Q9BUB5).
T24 construct: purchased Reaction Biology Corp
The following applies: MNK1; 0.1 μM; 10 μM ATP; read-out: % Enzyme Activity (relative to DMSO controls).
Source text: as §1

T8 sequence (O14578 whole entry): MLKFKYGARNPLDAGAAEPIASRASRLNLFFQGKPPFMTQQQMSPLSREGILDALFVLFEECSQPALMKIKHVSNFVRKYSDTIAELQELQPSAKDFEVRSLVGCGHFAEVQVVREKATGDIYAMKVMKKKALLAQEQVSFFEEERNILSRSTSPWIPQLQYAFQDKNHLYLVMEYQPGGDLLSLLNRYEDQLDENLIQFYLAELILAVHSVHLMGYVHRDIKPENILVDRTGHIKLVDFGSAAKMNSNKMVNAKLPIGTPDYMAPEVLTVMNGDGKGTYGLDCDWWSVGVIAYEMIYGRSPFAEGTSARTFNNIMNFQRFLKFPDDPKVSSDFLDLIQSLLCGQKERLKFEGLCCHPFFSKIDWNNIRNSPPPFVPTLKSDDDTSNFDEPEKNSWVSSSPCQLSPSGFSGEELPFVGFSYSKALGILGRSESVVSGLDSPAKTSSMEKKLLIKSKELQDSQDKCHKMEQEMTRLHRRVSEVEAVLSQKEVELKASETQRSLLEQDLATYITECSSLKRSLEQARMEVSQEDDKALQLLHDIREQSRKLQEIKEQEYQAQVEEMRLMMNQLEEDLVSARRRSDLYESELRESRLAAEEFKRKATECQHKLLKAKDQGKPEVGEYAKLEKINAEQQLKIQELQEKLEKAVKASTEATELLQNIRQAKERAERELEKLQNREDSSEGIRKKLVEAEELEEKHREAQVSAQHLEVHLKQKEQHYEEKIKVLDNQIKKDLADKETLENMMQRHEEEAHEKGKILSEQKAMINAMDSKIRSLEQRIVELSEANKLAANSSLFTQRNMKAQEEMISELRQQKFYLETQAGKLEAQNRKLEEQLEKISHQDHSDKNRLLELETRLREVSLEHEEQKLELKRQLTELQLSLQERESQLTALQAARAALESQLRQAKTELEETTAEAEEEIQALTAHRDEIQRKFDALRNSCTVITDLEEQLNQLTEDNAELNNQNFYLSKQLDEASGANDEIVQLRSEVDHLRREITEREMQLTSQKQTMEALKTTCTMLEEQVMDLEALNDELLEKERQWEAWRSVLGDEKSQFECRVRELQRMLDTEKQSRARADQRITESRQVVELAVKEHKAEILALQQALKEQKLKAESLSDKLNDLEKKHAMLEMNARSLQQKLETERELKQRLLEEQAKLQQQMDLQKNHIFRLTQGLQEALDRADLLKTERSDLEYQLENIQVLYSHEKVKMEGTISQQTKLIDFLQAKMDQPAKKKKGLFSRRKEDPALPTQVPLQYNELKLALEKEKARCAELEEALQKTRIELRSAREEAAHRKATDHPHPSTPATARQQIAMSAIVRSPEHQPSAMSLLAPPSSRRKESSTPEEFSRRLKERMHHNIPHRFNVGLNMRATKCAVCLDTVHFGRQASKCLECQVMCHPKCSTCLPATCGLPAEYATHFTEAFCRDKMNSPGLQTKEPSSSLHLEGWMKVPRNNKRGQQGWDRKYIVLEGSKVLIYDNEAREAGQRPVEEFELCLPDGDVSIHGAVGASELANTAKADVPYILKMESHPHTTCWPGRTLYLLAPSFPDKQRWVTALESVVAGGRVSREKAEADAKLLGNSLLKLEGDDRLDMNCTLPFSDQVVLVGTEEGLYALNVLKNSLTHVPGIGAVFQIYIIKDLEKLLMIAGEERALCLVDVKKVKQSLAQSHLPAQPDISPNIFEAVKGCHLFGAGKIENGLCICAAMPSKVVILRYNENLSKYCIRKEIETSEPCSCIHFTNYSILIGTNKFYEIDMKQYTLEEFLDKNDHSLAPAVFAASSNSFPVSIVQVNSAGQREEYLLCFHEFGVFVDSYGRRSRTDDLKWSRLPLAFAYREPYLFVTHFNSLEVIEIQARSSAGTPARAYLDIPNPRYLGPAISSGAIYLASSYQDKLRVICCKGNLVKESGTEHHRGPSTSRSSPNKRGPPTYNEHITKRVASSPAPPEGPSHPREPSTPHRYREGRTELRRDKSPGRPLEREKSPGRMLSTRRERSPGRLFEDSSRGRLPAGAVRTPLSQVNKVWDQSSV
T22 sequence (O95747 whole entry): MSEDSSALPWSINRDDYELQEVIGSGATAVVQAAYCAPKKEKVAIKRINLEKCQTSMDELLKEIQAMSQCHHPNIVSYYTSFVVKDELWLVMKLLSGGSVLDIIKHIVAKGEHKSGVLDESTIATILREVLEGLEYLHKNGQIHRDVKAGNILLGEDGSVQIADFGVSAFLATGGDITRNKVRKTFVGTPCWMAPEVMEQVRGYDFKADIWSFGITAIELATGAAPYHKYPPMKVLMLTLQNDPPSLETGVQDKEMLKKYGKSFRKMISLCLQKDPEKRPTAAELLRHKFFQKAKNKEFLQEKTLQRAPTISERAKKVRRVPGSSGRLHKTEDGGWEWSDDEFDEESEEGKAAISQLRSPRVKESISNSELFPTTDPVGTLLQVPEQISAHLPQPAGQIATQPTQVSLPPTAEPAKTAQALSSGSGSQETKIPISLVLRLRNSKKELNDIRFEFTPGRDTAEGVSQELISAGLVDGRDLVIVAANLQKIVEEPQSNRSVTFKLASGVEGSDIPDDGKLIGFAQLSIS
T19 sequence (Q13164 whole entry): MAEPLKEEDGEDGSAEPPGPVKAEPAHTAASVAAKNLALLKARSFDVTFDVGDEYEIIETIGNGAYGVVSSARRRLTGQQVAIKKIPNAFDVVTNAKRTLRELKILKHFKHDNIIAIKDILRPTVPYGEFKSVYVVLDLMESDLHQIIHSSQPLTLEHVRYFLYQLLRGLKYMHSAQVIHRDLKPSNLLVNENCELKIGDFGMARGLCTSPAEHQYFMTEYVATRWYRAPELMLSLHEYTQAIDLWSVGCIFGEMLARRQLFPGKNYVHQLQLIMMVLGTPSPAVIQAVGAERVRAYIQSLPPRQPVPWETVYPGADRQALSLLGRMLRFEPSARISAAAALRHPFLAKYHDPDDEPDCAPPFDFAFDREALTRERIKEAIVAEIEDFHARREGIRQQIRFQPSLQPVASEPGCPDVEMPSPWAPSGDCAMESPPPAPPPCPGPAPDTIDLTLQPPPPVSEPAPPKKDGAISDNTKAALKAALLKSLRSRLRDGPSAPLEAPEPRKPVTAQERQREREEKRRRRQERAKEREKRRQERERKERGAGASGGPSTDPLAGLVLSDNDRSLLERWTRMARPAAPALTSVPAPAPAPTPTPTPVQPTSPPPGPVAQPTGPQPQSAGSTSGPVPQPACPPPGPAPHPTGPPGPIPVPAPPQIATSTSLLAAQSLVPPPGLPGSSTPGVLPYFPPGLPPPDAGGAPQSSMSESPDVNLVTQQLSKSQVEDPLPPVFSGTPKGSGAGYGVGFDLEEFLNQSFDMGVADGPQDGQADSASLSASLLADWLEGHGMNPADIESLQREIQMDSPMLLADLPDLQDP
T9 sequence (Q9H2X6 whole entry): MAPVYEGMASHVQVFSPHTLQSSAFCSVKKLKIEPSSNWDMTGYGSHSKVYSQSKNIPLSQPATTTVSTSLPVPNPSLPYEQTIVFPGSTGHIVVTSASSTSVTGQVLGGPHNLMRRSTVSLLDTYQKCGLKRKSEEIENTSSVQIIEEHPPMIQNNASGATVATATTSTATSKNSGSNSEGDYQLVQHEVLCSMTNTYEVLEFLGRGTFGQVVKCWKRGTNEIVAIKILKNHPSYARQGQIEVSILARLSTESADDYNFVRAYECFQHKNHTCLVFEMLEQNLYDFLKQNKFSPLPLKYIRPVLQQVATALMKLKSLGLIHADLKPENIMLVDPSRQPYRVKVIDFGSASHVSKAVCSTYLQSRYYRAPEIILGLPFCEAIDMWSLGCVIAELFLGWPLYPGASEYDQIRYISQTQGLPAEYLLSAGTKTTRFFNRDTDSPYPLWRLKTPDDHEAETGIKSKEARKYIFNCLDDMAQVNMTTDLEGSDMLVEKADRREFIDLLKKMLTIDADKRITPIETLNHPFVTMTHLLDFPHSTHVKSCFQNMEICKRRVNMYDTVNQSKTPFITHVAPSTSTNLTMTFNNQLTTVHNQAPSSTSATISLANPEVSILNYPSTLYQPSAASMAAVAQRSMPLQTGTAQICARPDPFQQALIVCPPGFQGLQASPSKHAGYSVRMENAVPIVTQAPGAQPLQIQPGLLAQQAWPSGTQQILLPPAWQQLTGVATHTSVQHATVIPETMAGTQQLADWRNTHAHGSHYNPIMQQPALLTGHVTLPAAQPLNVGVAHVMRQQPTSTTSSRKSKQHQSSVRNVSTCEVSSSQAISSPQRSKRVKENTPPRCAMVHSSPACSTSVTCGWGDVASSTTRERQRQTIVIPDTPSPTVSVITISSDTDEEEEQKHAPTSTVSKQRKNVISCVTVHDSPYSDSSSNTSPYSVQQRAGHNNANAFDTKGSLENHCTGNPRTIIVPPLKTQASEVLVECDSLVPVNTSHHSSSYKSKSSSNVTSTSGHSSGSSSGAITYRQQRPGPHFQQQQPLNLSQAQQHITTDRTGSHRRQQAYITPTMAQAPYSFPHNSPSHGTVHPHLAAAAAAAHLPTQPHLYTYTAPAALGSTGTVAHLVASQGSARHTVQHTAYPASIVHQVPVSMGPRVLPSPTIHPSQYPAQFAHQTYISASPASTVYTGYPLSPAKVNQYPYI
T18 sequence (P42679 whole entry): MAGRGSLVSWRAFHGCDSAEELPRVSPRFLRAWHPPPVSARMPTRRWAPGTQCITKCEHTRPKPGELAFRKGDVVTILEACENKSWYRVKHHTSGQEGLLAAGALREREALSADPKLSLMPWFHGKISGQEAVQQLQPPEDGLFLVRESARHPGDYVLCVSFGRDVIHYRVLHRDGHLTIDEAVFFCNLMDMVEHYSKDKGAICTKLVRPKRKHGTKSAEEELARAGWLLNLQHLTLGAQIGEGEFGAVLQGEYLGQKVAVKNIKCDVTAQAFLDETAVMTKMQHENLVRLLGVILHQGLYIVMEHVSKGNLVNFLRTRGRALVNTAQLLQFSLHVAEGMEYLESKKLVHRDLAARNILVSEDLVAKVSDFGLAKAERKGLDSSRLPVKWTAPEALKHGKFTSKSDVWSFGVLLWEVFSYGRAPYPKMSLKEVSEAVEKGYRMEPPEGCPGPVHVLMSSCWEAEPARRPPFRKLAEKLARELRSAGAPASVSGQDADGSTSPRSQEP

As to `CN1CCN(Cc2ccc(-c3cnc4[nH]cc(-c5ccc6[nH]ccc6c5)c4c3)cc2)CC1` [Compound 1, 3-(1H-Indol-5-yl)-5-(4-((4-methylpiperazin-1-yl)methyl)phenyl)-1H-pyrrolo[2,3-b]pyridine, reference compound], the remaining activity at 0.1 µM is 132% in [1]; 93.6% in [2]; 101% in assay [3]; 94.9% in assay [4]; 99.5% in assay [5]; 88.1% in assay [6]. Also, the remaining activity at 0.1 µM in assay [7] is 102%; in [8] it was 103%; in [9], 110%; in assay [10], 104%; in assay [11], 97%; in assay [12], 90%. Further, the remaining activity at 0.1 µM was determined as 5.84% in assay [13]; 101% in assay [14]; 111% in assay [15]; 94% in [16]; 49.6% in [17]; 102% in [18]. Further, the remaining activity at 0.1 µM in [19] was 102%; in assay [20], 87.4%; in [21], 19.4%; in assay [22], 102%; in [23], 106%; in [24], 94%.
For the compound `OCCN1CCN(Cc2ccc(-c3cnc4[nH]cc(-c5cccc(Cl)c5)c4c3)cc2)CC1` [Compound 12k, 2-(4-(4-(3-(3-Chlorophenyl)-1H-pyrrolo[2,3-b]pyridin-5-yl)benzyl)piperazin-1-yl)ethan-1-ol], the remaining activity at 0.1 µM in [1] worked out at 103%; in assay [2] it was 97.7%; in [3], 102%; in assay [4], 101%; in [5], 101%; in assay [6], 71.9%. The remaining activity at 0.1 µM in [7] was 100%; in assay [8], 104%; in assay [9], 95.7%; in assay [10], 105%; in assay [11], 81.3%; in assay [12], 75%. Also, the remaining activity at 0.1 µM was -0.01% in [13]; 103% in [14]; 109% in assay [15]; 95% in [16]; 47.9% in [17]; 96.5% in [18]. Besides, the remaining activity at 0.1 µM amounted to 113% in assay [19]; 94.2% in assay [20]; 52.2% in assay [21]; 97.1% in [22]; 95.4% in assay [23]; 90.7% in assay [24].
